Source: patent US9433580B2 (priority 2011, dated 2016)

Test system: Pseudomonas aeruginosa
Assay: Burn wound infection model (mouse superficial skin model, thermal injury), log reduction of Pseudomonas aeruginosa
Format: in vivo, Swiss albino mice
Details: orally 25 mg/kg body weight, day 6
Protocol: Swiss albino mice were put into six groups and their backs were shaven. Thermal injury was induced in the shaven area by applying a heated brass rod on the back of the animals for 15 seconds to 20 seconds. For establishment of a topical infection, an inoculum containing approximately 2×10^5 bacteria (Pseudomonas aeruginosa) was injected subcutaneously (100 μL) on the sites of the burns. One hour post infection, the mice were treated using 100 mg of cream formulations of different drug concentrations. In case of all the cream formulations, 100 mg cream was applied topically twice daily for 5 days. One of the groups of mice was given Levofloxacin orally at 25 mg/kg body weight as a reference standard.

SMILES: C[C@H]1COc2c(N3CCN(C)CC3)c(F)cc3c(=O)c(C(=O)O)cn1c23 [Levofloxacin]
- Log reduction of microbial count: 5.53 log10
